In patent publication US5449674A, “2-,3-,5-, and/or 8-substituted dibenzoxazepine compounds, pharmaceutical compositions and methods for treating pain” (G. D. Searle & Co., priority 1994, dated 1995):
Converted amounts (≈) assume the structure as drawn. Where a name gives a salt, the structure may show the parent alone. Read-outs that look alike come from different tables or passages of the source.

What was measured:
[1] = water solubility; format: physicochemical; details: for solubility: water
Description: The title compound was determined to have a high water solubility (>80 mg/mL) by methods known by those of skill in the art.

[2] = test system: phenylbenzoquinone (PBQ)-induced writhing in mice; test: Writhing Assay (PBQ-induced writhing, analgesic activity in mice); format: in vivo, Charles River male albino mice; details: for Writhing assay, number of mice out of nine or ten in which the test compound produced analgesia, I.G. / Writhing assay, number of mice out of nine or ten in which the test compound produced analgesia, S.C.: 30 mg/kg, PBQ i.p. 30 min later; for ED50: Mus musculus
Text: The Writhing Assay is one of the most widely-used experimental procedures for measuring the analgesic activity of different narcotic and nonnarcotic analgesic agents, and involves the continuous, chemically-induced pain of visceral origin to an animal, such as a mouse or rat. [Gyires et al., Arch. int. Pharmacodyn, 267, 131-140 (1984); C. Vander Wende et al., Fed. Proc., 15, 494 (1956); Koster et al., Fed. Proc., 18, 412 (1959); and Witken et al., J. Pharmacol. exp. Ther., 133, 400-408 (1961).]Chemicals which may be used to induce this pain include phenylbenzoquinone (PBQ) and acetic acid. As a result of the chemical irritation to the animal, a characteristic stretching and writhing of the animal (dorsiflexion of the animal's back, extension of its hindlimbs and the strong contraction of its abdominal musculature) will generally occur. […] Drugs which reduce the number of writhes of the animal appear to restore the normal nociceptive threshold of the animal.
Charles River male albino mice, weighing 20 to 30 grams, were used in this assay.
Thirty minutes after subcutaneous or intragastric administration to ten mice of 30 mg per kilogram of body weight of a compound of the present invention ("test compound"), […] per 10 g of body weight of a 0.025% w/v solution of PBQ was injected intraperitoneally into each mouse. Ten mice which were given saline in place of a test compound of the invention were used as a control group.
Five minutes later, each mouse was individually placed into a glass beaker for observation, and the number of writhes occurring during the following ten-minute period was counted.
A test compound was considered to have produced analgesia in a mouse if, in accordance with the conditions set forth above, and under the test criteria employed for this assay, after the administration of 30 mg per kilogram of body weight of a compound of the present invention to the mouse, the number of writhes elicited by a mouse injected with PBQ was equal to, or less than, one-half the median number of writhes recorded for the saline-treated control group of mice that day, as described by Taber in "Predictive Value of Analgesic Assays in Mice and Rats," Advances in Biochemical Psychopharmacology, 8, 191 (1974).
The results for the particular compounds of the present invention analyzed in this assay, and discussed in the examples identified below which correspond thereto, are presented in Table I hereinbelow as fractions under the heading "WRITHING ASSAY." The fractions indicate the number of mice, out of ten, in which the test compound produced analgesia.
The standard initial screening dose of a test compound employed in this assay was […] for both routes of administration. If this initial screening dose of the test compound produced analgesia in seven of ten mice, then the effect of additional doses of the test compound on the writhing response was evaluated, and then the ED50 dose was generally calculated. (The slopes of the dose-response curves for all test compounds analyzed were compared as described by Tallarida and Murray, Manual of Pharmacologic Calculations, Page 11 (Springer Verlag, New York, 1981)).

[3] = biological target: T1, prostaglandin E2-induced contractions of segments of guinea pig ileum (Cavia porcellus, UniProt A0A286XHJ6); test: Prostaglandin (PGE) Antagonism Assay; format: cell-based; details: isolated ileum, 37° C., read-out: PGE in guinea pig ileum pA2 (converted)
T1 construct: Segments of ileum about 2 cm long were then cut and mounted in a 10 mL tissue bath; from tissue; host or cells: guinea pig ileum segments
T1 sequence (A0A286XHJ6 1-405): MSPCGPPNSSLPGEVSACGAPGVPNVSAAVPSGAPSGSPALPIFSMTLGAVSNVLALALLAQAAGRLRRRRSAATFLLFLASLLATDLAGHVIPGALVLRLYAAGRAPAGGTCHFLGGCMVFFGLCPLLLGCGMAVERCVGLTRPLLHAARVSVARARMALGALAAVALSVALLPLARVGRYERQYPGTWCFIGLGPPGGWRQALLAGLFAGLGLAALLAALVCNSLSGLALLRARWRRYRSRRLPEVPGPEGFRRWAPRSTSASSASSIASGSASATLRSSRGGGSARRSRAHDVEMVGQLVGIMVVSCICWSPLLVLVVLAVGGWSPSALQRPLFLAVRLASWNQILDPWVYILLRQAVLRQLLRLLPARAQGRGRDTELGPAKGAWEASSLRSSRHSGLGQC
Description: In order to determine the effectiveness of several of the compounds of the present invention ("test compounds") as prostaglandin E2 antagonists,a prostaglandin antagonism assay was conducted, as described below, to determine the ability of these compounds to inhibit prostaglandin E2 -induced contractions of segments of guinea pig ileum.
Male albino guinea pigs weighing 200 to 500 grams were sacrificed by cervical dislocation. The ilea were then quickly removed from the guinea pigs and placed in a modified Tyrode solution, a solution which is known to those skilled in the art, containing one-half of the usual amount of magnesium ions.
Segments of ileum about 2 cm long were then cut and mounted in a 10 mL tissue bath containing the modified Tyrode solution. The solution was maintained at 37° C. and aerated with a gaseous mixture of 95% oxygen and 5% carbon dioxide. Data for a control prostaglandin E2 dose response curve plotting concentration of prostaglandin E2 versus the intensity of contractions, detected isotonically, was then obtained by experimentally adjusting the dose of the prostaglandin E2 being injected into the tissue bath, in a manner known by those of skill in the art. […]
A dose ratio of EC50 doses was then calculated from the results of each test in a manner known by those of skill in the art. […]

[4] = test system: prostaglandins, isolated smooth muscle preparations; details: cited from earlier work
[5] = test system: micturition reflex; details: urethane-anesthetized rats; cited from earlier work

Row | Compound | Writhing assay, number of mice out of nine or ten in which the test compound produced analgesia, I.G. ([2]; intragastric) | Writhing assay, number of mice out of nine or ten in which the test compound produced analgesia, S.C. ([2]; subcutaneous) | also measured
1 | CCS(=O)(=O)CCC(=O)NNC(=O)N1Cc2ccccc2Oc2ccc(Cl)cc21 [8-chlorodibenz[b,f][1,41oxazepine-10(11H)-carboxylic acid, 2-[3(ethylsulfonyl)-1-oxopropyl]hydrazide, reference compound] | – | – | solubility ([1]; comparison compound): 80 µg/mL (≈ 183 µM)
2 | O=C(O)/C=C\C(=O)N1Cc2ccccc2Oc2ccc(Cl)cc21 [Example 2, 4-(8-chloro-10,11-dihydrodibenz[b,f]-oxazepin-10-yl)-4-oxo-2Z-butenoic acid] | 1/10 | 4/10 | –
3 | CCCCOC(=O)/C=C\C(=O)N1Cc2ccccc2Oc2ccc(Cl)cc21 [Example 3, Butyl 4-(8-chloro-10,1! -dihydrodibenz[b,f]-oxazepin-10-yl)-4-oxo-2Z-butenoate] | 6/10 | 4/10 | –
4 | CCCCOC(=O)/C=C/C(=O)N1Cc2ccccc2Oc2ccc(Cl)cc21 [Example 4, Butyl 4-(8-chloro-10,11-dihydrodibenz[b,f]-oxazepin-10-yl)-4-oxo-2E-butenoate] | 6/10 | 6/10 | –
5 | CCCCNC(=O)/C=C\C(=O)N1Cc2ccccc2Oc2ccc(Cl)cc21 [Example 5] | 4/10 | 6/10 | –
6 | COC(=O)/C=C/C(=O)N1Cc2ccccc2Oc2ccc(Cl)cc21 [Example 7, Methyl 4-(8-chloro-10,11-dihydrodibenz[b,f]-oxazepin-10-yl)-4-oxo-2E-butenoate] | 3/10 | 6/9 | –
7 | CN(C)CCNC(=O)/C=C/C(=O)N1Cc2ccccc2Oc2ccc(Cl)cc21 [Example 8, 4-(8-chloro-10,11-dihydrodibenz[b,f]oxazepin-10-yl) -N-[2-(dimethylamino)ethyl]-4-oxo-2E-butenamide, monohydrochloride] | – | – | ED50 ([2]; po, intragastric, read-out: Writhing assay ED50 Dose, I.G.): 8.3 mg/kg; ED50 ([2]; sc, subcutaneous, read-out: Writhing assay ED50 Dose, S.C.): 8.3 mg/kg; Writhing Assay potency ranking (in words) ([2]; among compounds tested): most potent compound of the invention tested in this assay; Kb [3]: 1860 nM; water solubility (in words) [1]: highly water soluble; solubility [1]: > 80000 µg/mL
8 | O=C(CCC(=O)N1Cc2ccccc2Oc2ccc(Cl)cc21)NCc1ccncc1 [Example 9, 8-chloro-γ-oxo-N-(4-pyridinylmethyl)dibenz[b,f]-[1,4]oxazepine-10(11)-butanamide] | 6/10 | – | Kb [3]: 2400 nM
9 | CN(C)CCNC(=O)CCC(=O)N1Cc2ccccc2Oc2ccc(Cl)cc21 [Example 10, 8-chloro-N-[2-(dimethylamino)ethyl]-γ-oxodibenz [b,f][1,4]oxazepine-10(11)-butanamide] | 6/9 | – | –
10 | O=C(Cc1ccccc1)NNC(=O)N1Cc2ccccc2Oc2ccc(Cl)cc21 [SC-18637] | – | – | inhibition of stimulant actions of prostaglandins (in words) [4]: inhibit the stimulant actions of prostaglandins on isolated smooth muscle preparations
11 | CC(=O)NNC(=O)N1Cc2ccccc2Oc2ccc(Cl)cc21 [SC-19220] | – | – | bladder capacity (in words) [5]: increased the bladder capacity; voiding efficiency of micturition (in words) [5]: reduced the voiding efficiency of micturition; inhibition of stimulant actions of prostaglandins (in words) [4]: inhibit the stimulant actions of prostaglandins on isolated smooth muscle preparations
